# System: 885724-159-R-J1-PDC KRAS PDC multicell spheroid viability
# Experiment: Anticancer human tumor 885724-159-R-J1-PDC patient-derived pancreatic adenocarcinoma cell line growth inhibition [KRAS2]
# Settings: for IC50: curve of first compound; for viability, T/C: stronger effect = lower value
# How it was run: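 Combination screen of spheroid viability in tumor-cell co-cultures with endothelial (HUVEC) and mesenchymal stem cell stroma. Each agent was tested in half-log dilutions, topping at clinical Cmax or at 10 microM without a known Cmax.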
# [1] = second compound 0.1 µM, first compound 0.0316 µM
# [2] = second compound 0.1 µM, first compound 0.1 µM
# [3] = second compound 0.1 µM, first compound 0.316 µM
# [4] = second compound 0.1 µM, first compound 1 µM
# [5] = second compound 0.1 µM, first compound 3.16 µM
# [6] = second compound 0.1 µM, first compound 10 µM
# [7] = second compound 0.316 µM, first compound 0.0316 µM
# [8] = second compound 0.316 µM, first compound 0.1 µM
# [9] = second compound 0.316 µM, first compound 0.316 µM
# [10] = second compound 0.316 µM, first compound 1 µM
# [11] = second compound 0.316 µM, first compound 3.16 µM
# [12] = second compound 0.316 µM, first compound 10 µM
# [13] = second compound 1 µM, first compound 0.0316 µM
# [14] = second compound 1 µM, first compound 0.1 µM
# [15] = second compound 1 µM, first compound 0.316 µM
# [16] = second compound 1 µM, first compound 1 µM
# [17] = second compound 1 µM, first compound 3.16 µM
# [18] = second compound 1 µM, first compound 10 µM
# [19] = second compound 3.16 µM, first compound 0.0316 µM
# [20] = second compound 3.16 µM, first compound 0.1 µM
# [21] = second compound 3.16 µM, first compound 0.316 µM
# [22] = second compound 3.16 µM, first compound 1 µM
# [23] = second compound 3.16 µM, first compound 3.16 µM
# [24] = second compound 3.16 µM, first compound 10 µM
# [25] = second compound 10 µM, first compound 0.0316 µM
# [26] = second compound 10 µM, first compound 0.1 µM
# [27] = second compound 10 µM, first compound 0.316 µM
# [28] = second compound 10 µM, first compound 1 µM
# [29] = second compound 10 µM, first compound 3.16 µM
# [30] = second compound 10 µM, first compound 10 µM
# [31] = second compound 0.1 µM, first compound 0.00316 µM
# [32] = second compound 0.1 µM, first compound 0.01 µM
# [33] = second compound 0.316 µM, first compound 0.00316 µM
# [34] = second compound 0.316 µM, first compound 0.01 µM
# [35] = second compound 1 µM, first compound 0.00316 µM
# [36] = second compound 1 µM, first compound 0.01 µM
# [37] = second compound 3.16 µM, first compound 0.00316 µM
# [38] = second compound 3.16 µM, first compound 0.01 µM
# [39] = second compound 10 µM, first compound 0.00316 µM
# [40] = second compound 10 µM, first compound 0.01 µM
# 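Also: spheroids exposed to agents for 7 days before readout.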
Structure (SMILES),IC50 (second compound 0.1 µM),IC50 (second compound 0.316 µM),IC50 (second compound 1 µM),IC50 (second compound 3.16 µM),IC50 (second compound 10 µM),"viability, T/C [1]","viability, T/C [2]","viability, T/C [3]","viability, T/C [4]","viability, T/C [7]","viability, T/C [8]","viability, T/C [9]","viability, T/C [10]","viability, T/C [13]","viability, T/C [14]","viability, T/C [15]","viability, T/C [19]","viability, T/C [20]","viability, T/C [25]","viability, T/C [26]",also measured
CC(C)NCC(C(=O)N1CCN(c2ncnc3c2C(C)CC3O)CC1)c1ccc(Cl)cc1 (stereo not given) + COc1cc2nc(C)nc(NC(C)c3cc(N)cc(C(F)(F)F)c3)c2cc1OC1CCOC1,> 10000 nM,> 10000 nM,> 10000 nM,8310 nM,< 31.6 nM,86.3%,77.1%,75.7%,71.6%,88.8%,87.2%,70.5%,70.3%,86.4%,77.5%,69.1%,76.7%,72.3%,39.2%,37.5%,"viability, T/C [5]: 74.6%; viability, T/C [6]: 56.8%; viability, T/C [11]: 75.7%; viability, T/C [12]: 57.7%; viability, T/C [16]: 70.8%; viability, T/C [17]: 71.6%; viability, T/C [18]: 56.4%; viability, T/C [21]: 66%; viability, T/C [22]: 71.3%; viability, T/C [23]: 76.9%; viability, T/C [24]: 45.8%; viability, T/C [27]: 26.9%; viability, T/C [28]: 20.8%; viability, T/C [29]: 11.5%; viability, T/C [30]: 6.18%"
CCN1CCN(Cc2ccc(Nc3ncc(F)c(-c4cc(F)c5nc(C)n(C(C)C)c5c4)n3)nc2)CC1 + COc1cc2nc(C)nc(NC(C)c3cc(N)cc(C(F)(F)F)c3)c2cc1OC1CCOC1,> 1000 nM,> 1000 nM,> 1000 nM,> 1000 nM,< 3.16 nM,84.2%,80.7%,80.7%,86.1%,79.9%,79%,75.2%,76.6%,78.6%,73.2%,72.4%,76%,63%,28.3%,36.6%,"viability, T/C [31]: 88.8%; viability, T/C [32]: 89.7%; viability, T/C [33]: 96.3%; viability, T/C [34]: 86.2%; viability, T/C [35]: 90%; viability, T/C [36]: 86.9%; viability, T/C [16]: 80.8%; viability, T/C [37]: 80.3%; viability, T/C [38]: 91.6%; viability, T/C [21]: 71.5%; viability, T/C [22]: 73.1%; viability, T/C [39]: 38.2%; viability, T/C [40]: 35.9%; viability, T/C [27]: 17.6%; viability, T/C [28]: 7.18%"
CCNC(=O)CC1N=C(c2ccc(Cl)cc2)c2cc(OC)ccc2-n2c(C)nnc21 (stereo not given) + COc1cc2nc(C)nc(NC(C)c3cc(N)cc(C(F)(F)F)c3)c2cc1OC1CCOC1,2350 nM,3080 nM,2490 nM,952 nM,< 31.6 nM,99.4%,91.5%,75.2%,53.8%,101%,89.6%,76.4%,57%,95.9%,94.4%,72%,94.6%,99.6%,34.8%,22.4%,"viability, T/C [5]: 50%; viability, T/C [6]: 45.7%; viability, T/C [11]: 51.7%; viability, T/C [12]: 44.8%; viability, T/C [16]: 55.9%; viability, T/C [17]: 49.1%; viability, T/C [18]: 46.9%; viability, T/C [21]: 69.1%; viability, T/C [22]: 54.3%; viability, T/C [23]: 47.8%; viability, T/C [24]: 44.6%; viability, T/C [27]: 16.5%; viability, T/C [28]: 14.1%; viability, T/C [29]: 20.1%; viability, T/C [30]: 12.4%"
Cn1ncnc1[C@H]1c2n[nH]c(=O)c3cc(F)cc(c23)N[C@@H]1c1ccc(F)cc1 + COc1cc2nc(C)nc(NC(C)c3cc(N)cc(C(F)(F)F)c3)c2cc1OC1CCOC1,> 100 nM,> 100 nM,> 100 nM,> 100 nM,< 0.316 nM,92.1%,93.4%,,,94.5%,91.3%,,,102%,85.5%,,94.3%,83.1%,34.2%,30.4%,"viability, T/C (second compound 0.1 µM, first compound 0.000316 µM): 104%; viability, T/C (second compound 0.1 µM, first compound 0.001 µM): 101%; viability, T/C [31]: 102%; viability, T/C [32]: 96.2%; viability, T/C (second compound 0.316 µM, first compound 0.000316 µM): 96.3%; viability, T/C (second compound 0.316 µM, first compound 0.001 µM): 102%; viability, T/C [33]: 98.6%; viability, T/C [34]: 98.3%; viability, T/C (second compound 1 µM, first compound 0.000316 µM): 98.2%; viability, T/C (second compound 1 µM, first compound 0.001 µM): 96.5%; viability, T/C [35]: 92.4%; viability, T/C [36]: 94.3%; viability, T/C (second compound 3.16 µM, first compound 0.000316 µM): 91.8%; viability, T/C (second compound 3.16 µM, first compound 0.001 µM): 97.9%; viability, T/C [37]: 90.5%; viability, T/C [38]: 88.5%; viability, T/C (second compound 10 µM, first compound 0.000316 µM): 42.1%; viability, T/C (second compound 10 µM, first compound 0.001 µM): 44.8%; viability, T/C [39]: 20.7%; viability, T/C [40]: 48.3%"
